Assay results from patent US20210332083A1, “Netrin-1 Compounds and Compositions Thereof for Treating Pulmonary Hypertension” (The Regents of the University of California, priority 2018, published 2021).
Positions of bridges follow the written chain, without caps; N, C: chain ends. Non-standard residues stand in square brackets, D forms with d. No end group written: not given here. mini‑PEG = diethylene glycol

Tested on: hypoxia induced pulmonary hypertensive mice
Assay: Hemodynamic analysis (mPAP, RVSP by catheter) in hypoxia induced PH mice
Type: in vivo, C57BL/6 mice
Conditions: for RVSP (mmHg) / mPAP (mmHg): Mean ± SEM; for % Improvement (reduction in pressure/increase), RVSP / % Improvement (reduction in pressure/increase), mPAP: vs hypoxia w/o treatment; for % Reduction RVSP / % Reduction mPAP: Table 3, (negative control mmHg-netrin-1 compound)/(negative control mmHg); for mean pulmonary arterial pressure (mPAP) / right ventricular systolic pressure (RVSP): mice, 10% oxygen 21 days, 15 ng/day s.c. mini-osmotic pump, mean±SEM; for mean pulmonary arterial pressure (mPAP): hypoxia 40.54±4.473, normoxia 19.41±1.281; for right ventricular systolic pressure (RVSP): hypoxia 41.94±3.287, normoxia 32.20±1.884
Procedure: All animal experiments were approved by the Institutional Animal Care and Usage Committee at the University of California, Los Angeles (UCLA). […] groups of 9-12 weeks old male C57BL/6 mice (Charles River Laboratories, Wilmington, Mass.) were implanted using mini-osmotic pumps subcutaneously releasing the given netrin-1 compound (netrin-1, V1-9aa, V2-10aa, V3-11aa, V1P, V2P, V3P, V1S, V1T, V1D, V1C) at 15 ng/day, and the mice were housed under room air or 10% oxygen conditions in a normobaric chamber for 21 days. The hypoxic environment was maintained by continuous mixed gas flow (10% oxygen/90% nitrogen gas). The animals were fed and watered ad libitum, and cages were changed twice weekly. After the chamber was closed, the mixed gas was flushed to recover the hypoxic environment as quickly as possible. Animals were maintained at 20° C. with a 12:12-hour light-dark cycle. At the end of the treatment period, animals were anesthetized and hemodynamic analyses were performed by introducing 1.4 F catheter (Millar instruments, Houston, Tex.) into right ventricle and pulmonary artery. The right ventricular systolic blood pressure (RVSP) and the mean pulmonary arterial pressure (mPAP) were recorded using a Power Lab data acquisition system (ADInstruments Inc., CO).
All animal experiments were approved by the Institutional Animal Care and Usage Committee at the University of California, Los Angeles (UCLA). Eleven groups of 9-12 weeks old male C57BL/6 mice (Charles River Laboratories, Wilmington, Mass.) were implanted using mini-osmotic pumps subcutaneously releasing Netrin-1 derived peptides and modified peptides at 15 ng/day (Netrin-1, V1, V2, V3, V1P, V2P, V3P, V1S, V1T, V1D and V1C), and the mice were housed under room air or 10% oxygen conditions in a normobaric chamber for 21 days. The hypoxic environment was maintained by continuous mixed gas flow (10% oxygen/5% CO2 balanced with nitrogen gas). The animals were fed and watered ad libitum, and cages were changed twice weekly. After the chamber was closed, the mixed gas was flushed to recover the hypoxic environment as quickly as possible. Animals were maintained at 20° C. with a 12:12-hour light-dark cycle.
At the end of the treatment period, animals were anesthetized and hemodynamic analysis were performed by introducing 1.4 F catheter (Mikro-Tip® catheter-transducer; Model SPR-671, Millar instruments, Houston, Tex.) into both right and left ventricle and pulmonary artery. The right ventricular systolic blood pressure (RVSP), pulmonary arterial pressure (PAP), left ventricular systolic pressure (LVSP) and aortic pressure were recorded using a Power Lab data acquisition system (ADInstruments Inc., CO).

[1] = Table 1, n = 4-5, hypoxia w/o treatment 38.98 ± 1.747, normal control 32.20 ± 1.884
[2] = Table 1, n = 4-5, hypoxia w/o treatment 39.54 ± 5.341, normal control 19.41 ± 1.281
[3] = Table 1, hypoxia-induced increase 6.78
[4] = Table 1, hypoxia-induced increase 19.39
[5] = Table 2, n = 4-6, hypoxia w/o treatment 40.54 ± 4.473, normal control 19.41 ± 1.281
[6] = Table 2, n = 4-6, hypoxia w/o treatment 41.94 ± 3.281, normal control 32.20 ± 1.884
[7] = Table 2, printed over hypoxia-induced increase 9.74
[8] = Table 2, printed over hypoxia-induced increase 21.13

Substance | RVSP (mmHg) [1] [mmHg] | mPAP (mmHg) [2] [mmHg] | reduction in pressure (of reduction in pressure/increase), RVSP [3] | reduction in pressure (of reduction in pressure/increase), mPAP [4] | % Improvement (reduction in pressure/increase), RVSP (Table 1) [%] | % Improvement (reduction in pressure/increase), mPAP (Table 1) [%] | % Reduction RVSP [%] | % Reduction mPAP [%] | mean pulmonary arterial pressure (mPAP) [mmHg] | right ventricular systolic pressure (RVSP) [mmHg] | mPAP (mmHg) [5] [mmHg] | RVSP (mmHg) [6] [mmHg] | reduction in pressure (of reduction in pressure/increase), RVSP [7] | reduction in pressure (of reduction in pressure/increase), mPAP [8] | % Improvement (reduction in pressure/increase), RVSP (Table 2) [%] | % Improvement (reduction in pressure/increase), mPAP (Table 2) [%] | attenuation (inhibition) of RVSP increase (hypoxia-induced RVSP increase) [%]
CDCRHNTAG [V1-9aa] (Peptide based on human Netrin-1 sequence) [304-312 aa of human netrin-1] | 31.50 ± 3.321 | 23.83 ± 5.149 | (>6.78/6.78) | (15.97/19.39) | 100 | 81 | 19 | 40 | 23.83±5.149 | 31.50±3.321 |  |  |  |  |  |  | 
CDCRHNTAG [V1C] (disulfide 1-3) |  |  |  |  |  |  | 36 | 56 | 17.76±1.403 | 26.80±3.051 | 17.76 ± 1.403 | 26.80 ± 3.051 | > 9.74 | (>21.32/21.13) | 100 | 100 | 
TDCRHNTAG (Peptide based on human Netrin-1 sequence) [V1T] |  |  |  |  |  |  | 31 | 40 | 24.52±2.686 | 29.03±2.960 | 24.52 ± 2.686 | 29.03 ± 2.960 | > 9.74 | (16.02/21.13) | 100 | 76 | 
CPCKDGVTGIT (Peptide based on human Netrin-1 sequence) [V3-11aa, 423-433 aa] | 31.23 ± 1.773 | 29.35 ± 3.635 | (>6.78/6.78) | (10.19/19.39) | 100 | 53 | 20 | 26 | 29.35±3.635 | 31.23±1.773 |  |  |  |  |  |  | 
(mini-PEG)-CLNCRHNTAG ({mini‑PEG}-CLNCRHNTAG; cysteine pairing not given here) [V2P] |  |  |  |  |  |  | 29 | 32 | 27.39±2.973 | 29.95±1.661 | 27.39 ± 2.973 | 29.95 ± 1.661 | > 9.74 | (13.15/21.13) | 100 | 62 | 
dCDCRHNTAdG ([dC]DCRHNTAG; cysteine pairing not given here) [V1D] |  |  |  |  |  |  | 30 | 44 | 22.89±3.237 | 29.41±3.876 | 22.89 ± 3.237 | 29.41 ± 3.876 | > 9.74 | (17.65/21.13) | 100 | 84 | 
CLNCRHNTAG (Peptide based on human Netrin-1 sequence) [V2-10aa, 368-377 aa] | 33.10 ± 1.044 | 25.74 ± 3.788 | (5.88/6.78) | (13.8/19.39) | 87 | 71 | 15 | 35 | 25.74±3.788 | 33.10±1.044 |  |  |  |  |  |  | 91
SDCRHNTAG (Peptide based on human Netrin-1 sequence) [V1S] |  |  |  |  |  |  | 44 | 59 | 16.58±1.608 | 23.62±0.518 | 16.58 ± 1.608 | 23.62 ± 0.518 | > 9.74 | (>21.32/21.13) | 100 | 100 | 
(mini-PEG)-CDCRHNTAG ({mini‑PEG}-CDCRHNTAG; not fully specified (bridges); printed as (mini-PEG)-CDCRHNTAG; cysteine pairing not given here) [V1P] |  |  |  |  |  |  | 26 | 46 | 21.88±3.020 | 30.95±3.876 | 21.88 ± 3.020 | 30.95 ± 3.867 | > 9.74 | (18.66/21.13) | 100 | 88 | 
(mini-PEG)-CPCKDGVTIGIT ({mini‑PEG}-CPCKDGVTIGIT; cysteine pairing not given here) [V3P] |  |  |  |  |  |  | 30 | 50 | 20.22±1.304 | 29.27±1.986 | 20.22 ± 1.304 | 29.27 ± 1.986 | > 9.74 | (20.32/21.13) | 100 | 96 | 
